{"source": "patent US5552155A", "about": "“Fusogenic lipsomes and methods for making and using same” (The Liposome Company, Inc., priority 1994, dated 1996)", "key": {"[1]": {"experiment": "2H-NMR phase behavior of AL-1-d4 in MLVs", "type": "physicochemical", "conditions": "for phase behavior by 2H-NMR (in words): 10 mole % AL-1-d4 in EPC/Chol (55:45)", "procedure": "Freeze-thawed MLVs of 10 mole % AL-1-d4 in EPC/Chol (55:45) were prepared as described above in 100 mM ammonium acetate at pH 4.0 and pH 7.5 in deuterium-depleted water. Sample concentrations were approximately 150 mM total lipid. Broad line quadrupole spectra were recorded on a Bruker MSL200 spectrometer at 30.7 MHz, using a spin-echo sequence with a 5.3 μs 90° pulse and a 200 ms repeat delay. Temperature was maintained at 20° C. with a liquid nitrogen flow system. […] FIDs were transformed using 100 Hz line-broadening.\nFreeze-thawed MLVs containing 5 mole percent AL-1-d4 in EPC/Chol (55:45) were prepared in 20 mM HEPES, 20 mM ammonium acetate, 150 mM NaCl, pH 4.0 and pH 7.5, using deuterium-depleted water. Sample concentrations were approximately 200 mM total lipid. ^2 H-NMR broadline spectra were recorded at 46.175 MHz, on a home-built 300 MHz spectrometer using a 5 μs 90° pulse, 50 μs interpulse spacing, 30.5 μs ring-down delay, and a 300 ms repetition time. A quadrupole echo sequence with eight-step phase cycling was used to accumulate 200,000 scans. The resulting free induction decay (FID) was transformed with 100 Hz line-broadening. High resolution ^31 P spectra were recorded at 81 MHz on a Bruker MSL200 spectrometer, using a 2.8 μs pulse and 30 s repeat. Temperature was maintained at 23 degrees Celsius with a liquid nitrogen flow system. The FID was accumulated over 1000 scans, and transformed with 50 Hz line broadening.\nThe use of MLVs in this experiment avoids the rapid tumbling of LUVs on the NMR time scale. […] At pH 7.5, the bilayer signal is no longer present, and a strong isotropic peak appears in the middle of the spectrum."}, "[2]": {"experiment": "TNS fluorescence pH titration: apparent pKa and % charged of aminolipids in liposomal membranes", "type": "physicochemical", "conditions": "for pKa in the lipid bilayer (text / figure legend): TNS fluorescence titration, 10 mole % AL-1 in EPC/Chol (55:45), no pH gradient (nigericin); for Apparent pKa: in liposomes, from fit of TNS fluorescence titrations to Henderson-Hasselbach equation; for pKa's and relative charges at pH 7.5 (in words): compared with AL-1", "procedure": "Preparations were diluted to 0.25 mM total lipid in 5 mM HEPES, 5 mM ammonium, 2 μM TNS at pHs ranging from 3.0 to 10.0 The pH across the vesicle membranes was rendered equal by adding nigericin to a final concentration of 0.01 μM. The TNS fluorescence at each pH value was determined under the conditions given above.\n*The data were derived from TNS fluorescence titrations. Curves for each\naminolipid were fitted to the HendersonHasselbach equation by iteratively\nvarying pKa and maximum and minimum fluorescence."}, "[3]": {"experiment": "Lipid-mixing fusion assay by RET fluorescent probe dilution, EPC/DOPE/Chol liposomes", "conditions": "for order of fusion traces, uppermost-lowermost / fusion of liposomes / fusion rate (in words): 5 mole % aminolipid, FIG. 9; for order of fusion traces, uppermost-lowermost: EPC/Chol/DOPE (35:20:45); for fusion of liposomes / fusion rate (in words): EPC/DOPE/Chol (35:20:45)", "procedure": "(§1) Fusion was monitored by the decrease in resonance energy transfer (RET) resulting from fluorescent probe dilution, as described by Struck et al. (1981). […] The external buffer was 20 mM HEPES (150 mM NaCl, pH 7.5). […] Labeled and unlabeled liposomes were mixed in a 1:3 ratio, and diluted to 0.2 mM total lipid. External buffer was exchanged for 300 mM sucrose, 1 mM citrate, pH 4.0, on Sephadex G-25 columns before diluting preparations to 10 mM lipid. For fusion assays, 20 μl of fluorescently labeled liposomes, and 60 μl unlabeled liposomes, were added to 3.92 ml of 20 mM HEPES, 150 mM NaCl, pH 7.5. After 5 min. of incubation at room temperature, a 3 ml aliquot was added to a cuvette, and the fluorescence was monitored over 5 minutes. Excitation and emission wavelengths were 465 and 535 nm, respectively, and an emission 530 nm cutoff filter was used. To dissipate the gradient and induce fusion, ammonium acetate was added to a final concentration of 100 mM at 30 seconds. The percent change in fluorescence (% F/Fmax) was determined by assigning zero fluorescence (F0) to a trace with no ammonium acetate added and Fmax to a trace measured after adding 100 μl of 25 mM Triton X-100, so that:\n(§2) % (F/Fmax)=100×((F-F0)/(Fmax -F0))\nTo study the effect of aminolipid structure on the fusion of EPC/Chol/DOPE liposomes (35:20:45) liposomes were prepared with 5 mole % of the indicated aminolipid (AL-1-AL-6), an internal pH 4.0, 300 mM sodium citrate buffer, and an external 20 mM HEPES buffer (150 mM NaCl, pH 7.5). Fusion assays were carried out as described above.\n(§3) Membrane fusion was monitored by a loss in RET between the fluorescently labeled lipids NBD-PE and Rh-PE. When liposomes containing both of these labels fuse with unlabeled liposomes, the resulting dilution of the fluorescent probes gives increased fluorescence for NBD-PE."}, "[4]": {"experiment": "Lipid-mixing fusion assay by RET fluorescent probe dilution, EPC/Chol (55:45) liposomes", "conditions": "for ΔF/ΔFmax (fusion): pH gradient dissipated by ammonium acetate", "procedure": "as §1, §2\nThe labeled and unlabeled liposomes were mixed in a 1:3 ratio and diluted to 0.20 mM total lipid. The pH gradient was dissipated by the addition of ammonium acetate to a final concentration of 100 mM at 30 seconds.\nas §3"}, "[5]": {"experiment": "Lipid-mixing fusion assay by RET fluorescent probe dilution, EPC/DOPE/Chol liposomes"}, "[6]": {"experiment": "Lipid asymmetry (transport of aminolipid to the inner monolayer) by TNS fluorescence", "type": "physicochemical", "conditions": "internal pH 4, external pH 7.5", "procedure": "Aliquots of 90 μl were added to 2.9 ml of 20 mM HEPES, 150 mM NaCl, 5 μM TNS, pH 7.5, and fluorescence was monitored over 5 minutes.\nHowever, at higher concentrations, the fluorescence levels off and begins to decrease.\nThe slow decreases in fluorescence observed in these curves is a result of photobleaching of TNS during the course of the experiments. […] The rapid movement of the AL-1 across the bilayer is advantageous for its use in controlling fusion."}, "[7]": {"experiment": "Aggregation / stability of aminolipid-containing liposomes", "type": "physicochemical"}, "[8]": {"conditions": "Table 1, from TNS fluorescence titrations"}, "[9]": {"conditions": "10 mole % AL-1 in EPC/Chol (55:45)"}}}
{"smiles": "[2H]/C(CCCCCCCC)=C(\\[2H])CCCCCCCC(=O)OCC(CN(C)C)OC(=O)CCCCCCC/C([2H])=C(/[2H])CCCCCCCC", "note": "(racemic) [AL-1-d4, rac-1-N,N-dimethylamino-2,3-bis(9,10-dideuteriooleoyl)propane]", "values": [{"measurement": "2H-NMR quadrupolar splitting of signal believed to arise from aminolipid in HII phase", "setting": "[1]; 5 mole % AL-1-d4, EPC/DOPE/Chol, pH 7.5, FIG. 8A", "result": "about 12 kHz"}, {"measurement": "phase behavior by 2H-NMR (in words)", "setting": "[1]; pH 4.0", "result": "quadrupolar splittings for the chain-labeled positions of AL-1-d4, with the expected magnitude for lipid in the bilayer"}]}
{"smiles": "CCCCCCCC/C=C\\CCCCCCCC(=O)OCC(O)CN(C)C", "note": "(racemic) [AL-2, ±-oleoyl-2-hydroxy-3-N,N-dimethylaminopropane]", "values": [{"measurement": "pKa in the lipid bilayer (text / figure legend)", "setting": "[2]", "result": "about 7.57"}, {"measurement": "Apparent pKa", "setting": "[2]; Table 1", "result": 7.57}, {"measurement": "% Charged at pH 7.5", "setting": "[2]; [8]", "result": 54, "unit": "%"}, {"measurement": "order of fusion traces, uppermost-lowermost", "setting": "[3]", "result": "AL-1, AL-5, AL-4, AL-3, AL-6, AL-2 and blank"}, {"measurement": "fusion of liposomes / fusion rate (in words)", "setting": "[3]", "result": "little increase in liposome fusion in comparison with liposomes not containing aminolipid"}]}
{"smiles": "CCCCCCCC/C=C\\CCCCCCCC(=O)OCC(CN(C)C)OC(C)=O", "note": "(racemic) [AL-3]", "values": [{"measurement": "pKa in the lipid bilayer (text / figure legend)", "setting": "[2]", "result": 6.79}, {"measurement": "% Charged at pH 7.5", "setting": "[2]; [8]", "result": 16, "unit": "%"}, {"measurement": "% Charged at pH 7.5", "setting": "[2]", "result": 16, "unit": "%"}, {"measurement": "order of fusion traces, uppermost-lowermost", "setting": "[3]", "result": "AL-1, AL-5, AL-4, AL-3, AL-6, AL-2 and blank"}, {"measurement": "fusion of liposomes / fusion rate (in words)", "setting": "[3]", "result": "substantially greater fusion rate"}]}
{"smiles": "CCCCCCCC/C=C\\CCCCCCCC(=O)OCC(CN(C)C)OC(=O)CCC", "note": "(racemic) [AL-4]", "values": [{"measurement": "Apparent pKa", "setting": "[2]; Table 1", "result": 6.66}, {"measurement": "% Charged at pH 7.5", "setting": "[2]; [8]", "result": 13, "unit": "%"}, {"measurement": "pKa's and relative charges at pH 7.5 (in words)", "setting": "[2]", "result": "approach those for AL-1"}, {"measurement": "order of fusion traces, uppermost-lowermost", "setting": "[3]", "result": "AL-1, AL-5, AL-4, AL-3, AL-6, AL-2 and blank"}, {"measurement": "fusion of liposomes / fusion rate (in words)", "setting": "[3]", "result": "further increases in the fusion rate, with rates approaching those achieved with AL-1--containing liposomes"}]}
{"smiles": "CCCCCCCC/C=C\\CCCCCCCC(=O)OCC(CN(C)C)OC(=O)CCCCCCCCC", "note": "(racemic) [AL-5]", "values": [{"measurement": "% Charged at pH 7.5", "setting": "[2]; [8]", "result": 14, "unit": "%"}, {"measurement": "pKa's and relative charges at pH 7.5 (in words)", "setting": "[2]", "result": "approach those for AL-1"}, {"measurement": "order of fusion traces, uppermost-lowermost", "setting": "[3]", "result": "AL-1, AL-5, AL-4, AL-3, AL-6, AL-2 and blank"}, {"measurement": "fusion of liposomes / fusion rate (in words)", "setting": "[3]", "result": "further increases in the fusion rate, with rates approaching those achieved with AL-1--containing liposomes"}]}
{"smiles": "CCCCCCCCCC(=O)OCC(CN(C)C)OC(=O)CCCCCCCCC", "note": "(racemic) [AL-6, ±-1,2-didecanoyl-1-N,N,-dimethyl-aminopropane]", "values": [{"measurement": "% Charged at pH 7.5", "setting": "[2]; [8]", "result": 17, "unit": "%"}, {"measurement": "pKa's and relative charges at pH 7.5 (in words)", "setting": "[2]", "result": "approach those for AL-1"}, {"measurement": "order of fusion traces, uppermost-lowermost", "setting": "[3]", "result": "AL-1, AL-5, AL-4, AL-3, AL-6, AL-2 and blank"}, {"measurement": "fusion of liposomes / fusion rate (in words)", "setting": "[3]", "result": "only limited mixing"}]}
{"smiles": "CCCCCCCC/C=C\\CCCCCCCC(=O)OCC(CN(C)C)OC(=O)CCCCCCC/C=C\\CCCCCCCC", "note": "(centres unmarked) [AL-1, 1-N,N-dimethylamino dioleoyl propane]", "values": [{"measurement": "ΔF/ΔFmax (fusion)", "setting": "[4]; 10 mole % AL-1, EPC/Chol (55:45)", "result": "~3", "unit": "%"}, {"measurement": "ΔF/ΔFmax (fusion)", "setting": "[4]; 20 mole % AL-1, EPC/Chol (55:45)", "result": "~3", "unit": "%"}, {"measurement": "degree of fusion (in words)", "setting": "[4]; AL-1 in EPC/Chol (55:45)", "result": "limited degree of fusion"}, {"measurement": "phase behavior by 2H-NMR (in words)", "setting": "[1]; pH 7.5", "result": "exists in separate fluid domains at pH 7.5"}, {"measurement": "ΔF/ΔFmax (fusion)", "setting": "[3]; 5 mole % AL-1, EPC/DOPE/Chol (35:20:45), first 5 minutes", "result": "greater than 10%"}, {"measurement": "order of fusion traces, uppermost-lowermost", "setting": "[3]", "result": "AL-1, AL-5, AL-4, AL-3, AL-6, AL-2 and blank"}, {"measurement": "fusion rate with increasing DOPE (in words)", "setting": "[5]; 10 mole % AL-1, DOPE replacing EPC up to 35:20:45 EPC/DOPE/Chol, FIG. 6", "result": "Increasing fusion rates were evident with increasing DOPE concentrations"}, {"measurement": "ΔF/ΔFmax (fusion)", "setting": "[5]; 10 mole % AL-1, EPC/DOPE/Chol 35:20:45, after 5 minutes", "result": "over 5%"}, {"measurement": "ΔF/ΔFmax (fusion)", "setting": "[5]; 10 mole % AL-1, EPC/DOPE/Chol (30:25:45), over 5 minutes after gradient dissipation", "result": "~10", "unit": "%"}, {"measurement": "time until TNS fluorescence equal to that of EPC/Chol liposomes (virtually all AL-1 moved to the inner monolayer)", "setting": "[6]; [9]", "result": "four"}, {"measurement": "transbilayer movement to the inner monolayer (in words)", "setting": "[6]; pH gradient", "result": "virtually all of the AL-1 had moved to the inner monolayer"}, {"measurement": "liposome stability (in words)", "setting": "[7]; 5 mole % AL-1, EPC/DOPE/Chol (35:20:45), pH 4.0 and external pH 7.5", "result": "stable liposomes were prepared, and these remained stable when the external pH was increased to 7.5"}, {"measurement": "liposome aggregation (in words)", "setting": "[7]; 10 mole % AL-1, EPC/DOPE/Chol 35:20:45, low pH", "result": "some aggregation of liposomes was observed at low pH"}, {"measurement": "liposome aggregation (in words)", "setting": "[7]; 10 mole % AL-1, EPC/DOPE/Chol, DOPE above 35:20:45", "result": "rapid aggregation"}, {"measurement": "liposome aggregation (in words)", "setting": "[7]; [9]", "result": "aggregated"}, {"measurement": "liposome aggregation (in words)", "setting": "[7]; AL-1 greater than about 20 mole % in EPC/Chol, following extrusion", "result": "rapid and complete liposome aggregation"}]}
